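Cultured in 96-well plates, cells were exposed to test compound for 48 hours across five concentrations. TGI denotes the concentration required for complete inhibition of growth.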
Experiments:
Test in all cases: NCI anticancer screen, dose series, 48 h
[1] = system: OVCAR-3 ovarian
[2] = system: NCI-H460 lung
[3] = system: CAKI-1 renal
[4] = system: DLD-1 colon
[5] = system: HL-60(TB) leukemia
[6] = system: RXF-631 renal
[7] = system: KM12 colon
[8] = system: KM20L2 colon
[9] = system: MOLT-4 leukemia
[10] = system: DMS 273 small cell lung
[11] = system: UACC-257 melanoma
[12] = system: HCT-15 colon
[13] = system: HOP-18 NSCLC
[14] = system: TK-10 renal
[15] = system: HCC-2998 colon
[16] = system: SNB-78 CNS
[17] = system: SF-539 CNS
[18] = system: M19-MEL melanoma
[19] = system: SNB-75 CNS
[20] = system: U251 CNS
[21] = system: HCT-116 colon
[22] = system: RXF 393 renal
[23] = system: ACHN renal
[24] = system: MALME-3M melanoma
[25] = system: CCRF-CEM leukemia
[26] = system: UACC-62 melanoma
[27] = system: SK-MEL-28 melanoma
[28] = system: K-562 leukemia
[29] = system: IGROV1 ovarian
[30] = system: SK-OV-3 ovarian
[31] = system: A549 NSCLC
[32] = system: OVCAR-4 ovarian
[33] = system: 786-0 renal
[34] = system: SF-268 CNS
[35] = system: NCI-H522 lung
[36] = system: SK-MEL-2 melanoma
[37] = system: A498 renal
[38] = system: LXFL 529 NSCLC
[39] = system: SW-620 colon
[40] = system: SNB-19 CNS
[41] = system: SR leukemia
[42] = system: EKVX NSCLC
[43] = system: NCI-H226 lung
[44] = system: RPMI-8226 leukemia
[45] = system: M14 melanoma
[46] = system: SN12C renal
[47] = system: COLO 205 colon
[48] = system: UO-31 renal
[49] = system: SK-MEL-5 melanoma
[50] = system: HOP-62 NSCLC
[51] = system: DMS 114 small cell lung
[52] = system: HOP-92 NSCLC
[53] = system: NCI-H23 lung
[54] = system: SF-295 CNS
[55] = system: HT29 colon
[56] = system: OVCAR-8 ovarian
[57] = system: OVCAR-5 ovarian

## CNC(=O)C1CCc2nnc(-c3ccccc3)n21 (configuration not stated)
[1]
  TGI: > 100 µM
[2]
  TGI: > 100 µM
[3]
  TGI: > 100 µM
[4]
  TGI: > 100 µM
[5]
  TGI: > 100 µM
[6]
  TGI: > 100 µM
[7]
  TGI: > 100 µM
[8]
  TGI: > 100 µM
[9]
  TGI: > 100 µM
[10]
  TGI: > 100 µM
[11]
  TGI: > 100 µM
[12]
  TGI: > 100 µM
[13]
  TGI: > 100 µM
[14]
  TGI: > 100 µM
[15]
  TGI: > 100 µM
[16]
  TGI: > 100 µM
[17]
  TGI: > 100 µM
[18]
  TGI: > 100 µM
[19]
  TGI: > 100 µM
[20]
  TGI: > 100 µM
[21]
  TGI: > 100 µM
[22]
  TGI: > 100 µM
[23]
  TGI: > 100 µM
[24]
  TGI: > 100 µM
[25]
  TGI: > 100 µM
[26]
  TGI: > 100 µM
[27]
  TGI: > 100 µM
[28]
  TGI: > 100 µM
[29]
  TGI: > 100 µM
[30]
  TGI: > 100 µM
[31]
  TGI: > 100 µM
[32]
  TGI: > 100 µM
[33]
  TGI: > 100 µM
[34]
  TGI: > 100 µM
[35]
  TGI: > 100 µM
[36]
  TGI: > 100 µM
[37]
  TGI: > 100 µM
[38]
  TGI: > 100 µM
[39]
  TGI: > 100 µM
[40]
  TGI: > 100 µM
[41]
  TGI: > 100 µM
[42]
  TGI: > 100 µM
[43]
  TGI: > 100 µM
[44]
  TGI: > 100 µM
[45]
  TGI: > 100 µM
[46]
  TGI: > 100 µM
[47]
  TGI: > 100 µM
[48]
  TGI: > 100 µM
[49]
  TGI: > 100 µM
[50]
  TGI: > 100 µM
[51]
  TGI: > 100 µM

## CN(C)CCNC(=O)c1cccc2ccc(-c3ccncc3)nc12
[1]
  TGI: 14.4 µM
[3]
  TGI: 5.21 µM
[4]
  TGI: 31 µM
[5]
  TGI: 7.59 µM
[7]
  TGI: 54.3 µM
[9]
  TGI: 1.37 µM
[10]
  TGI: 7.76 µM
[11]
  TGI: 6.66 µM
[12]
  TGI: 11.9 µM
[13]
  TGI: 9.18 µM
[14]
  TGI: 5.57 µM
[15]
  TGI: 10.2 µM
[52]
  TGI: 7.31 µM
[16]
  TGI: > 100 µM
[17]
  TGI: 9.64 µM
[18]
  TGI: 4.86 µM
[19]
  TGI: 9.9 µM
[20]
  TGI: 8.75 µM
[21]
  TGI: 4.71 µM
[22]
  TGI: 7.85 µM
[25]
  TGI: 15.5 µM
[26]
  TGI: 3.73 µM
[27]
  TGI: 17.5 µM
[28]
  TGI: 9.56 µM
[29]
  TGI: 8.37 µM
[30]
  TGI: 6.95 µM
[53]
  TGI: 5.31 µM
[54]
  TGI: 14.8 µM
[32]
  TGI: 15 µM
[33]
  TGI: 34.2 µM
[34]
  TGI: 21.7 µM
[36]
  TGI: 13.3 µM
[37]
  TGI: 4.34 µM
[39]
  TGI: 18.1 µM
[40]
  TGI: 9.5 µM
[42]
  TGI: 13.4 µM
[45]
  TGI: 16.1 µM
[55]
  TGI: 13.8 µM
[46]
  TGI: 15.4 µM
[47]
  TGI: 7.26 µM
[48]
  TGI: 5.37 µM
[56]
  TGI: > 100 µM
[49]
  TGI: 3.54 µM
[57]
  TGI: 5.63 µM
[50]
  TGI: 5.56 µM
[51]
  TGI: 8.95 µM
